One block for each molecule: values may come before it.
What was measured:
[1] = tested on: osteocalcin; experiment: Serum osteocalcin suppression, 28-day repeat dose mouse model; format: in vivo; settings: for Osteocalcin Suppression (ED80 dose): oral gavage 28 days, serum osteocalcin; for Serum osteocalcin (OC) EAUC50 / Serum osteocalcin (OC) EAUC80: data set 2, 28-day repeat dose model
[2] = Plasma exposure (AUC) in the mouse; format: in vivo
[3] = tested on: IL-6; experiment: IL-6 production in IL-1β-stimulated A549 cells; format: cell-based, human
Description: IL-6 IC50 and % Inhibition
Human A549 lung epithelial cells (American Type Culture Collection, Rockville, Md.) were cultured in Kaighn's F-12K medium with penicillin-streptomycin (10 U/mL) and 10% heat-inactivated fetal bovine serum (all from Invitrogen, Grand Island, N.Y.). A549 cells were plated at a density of 30,000 cells/well in 96-well plates and incubated overnight at 37° C. and with 5% CO2. The cells were serum-starved by replacing the growth medium with serum-free Kaighn's F-12K medium with penicillin-streptomycin (10 U/mL) and, again, incubating overnight at 37° C. and with 5% CO2. On the third day, the medium was replaced with fresh serum-free medium and the cells were incubated with or without compound (vehicle was DMSO at 0.1% maximum concentration) for approximately 1 hour and then stimulated with 1 ng/mL recombinant human IL-1β (R&D Systems, Minneapolis, Minn.) for 20 hours at 37° C. and with 5% CO2. Cell supernatants were collected for determination of IL-6 levels using MSD (Meso Scale Discovery, Gaithersburg, Md.) 96-well Single Spot plates as per the manufacturer's instructions. Plates were read with an MSD Sector Imager 6000. […] Vehicle was used to define the 0% inhibition control. Percent inhibition for each compound concentration, relative to these controls, was calculated using Excel (Microsoft, Redmond, Wash.). […]

[4] = tested on: cortical bone formation rate; experiment: Cortical bone histomorphometry, bone formation rate (BFR); format: in vivo, mouse
Description: Sigma-Aldrich, St. […] Calcein incorporates into the bone mineral and allows measurement of bone formation rate. Calcein was dissolved in 2% sodium bicarbonate. During the tissue harvest, the left tibiae were excised and cleaned for cortical histomorphometry measurements. After all skin and muscle were removed, tibiae were placed in 70% ethanol (4° C.) in the dark for a minimum of 24 hours. Ground transverse sections were used for histomorphometric analysis of cortical bone. Bones were sectioned using a low-speed saw (Isomet, Buehler, Lake Bluff, Ill.) equipped with a diamond wafer blade. The end of each tibia was removed proximal to tibia-fibula synostosis and a […] cross-section was cut. Using a roughened glass plate and a cork, sections were ground to […] until transparent and all labels were distinguishable under a fluorescent microscope. […] Sigma-Aldrich, St. Louis, Mo.). Sections were mounted using Eukitt Quick Mounting Medium (#03989, Sigma-Aldrich, St. Louis, Mo.) after which coverslip was applied. […] Bone formation rate was calculated by the following equation: (Inter-label width/Label interval)*(Labeled perimeter/Bone perimeter). At least five samples were measured from each treatment group in each study.

[5] = tested on: Mouse Collagen-Induced Arthritis; experiment: Traditional mouse collagen-induced arthritis (mCIA) model; format: in vivo
Description: (§1) Mouse Collagen-induced arthritis is a commonly used chronic, preclinical model of rheumatoid arthritis in which joint swelling and bone destruction occur following immunization with type II collagen. Reduction of disease incidence and severity has been shown previously to be predictive of disease-modification and signs and symptoms mitigation, respectively, in a clinical setting.
In the traditional mCIA model, male DBA/J mice were immunized with 50 μg chick type II collagen (cCII) in complete Freund's adjuvant and then boosted 21 days later with 50 μg cCII in incomplete Freund's adjuvant. Treatment with compounds was initiated on the morning of the boost and continued for 56 days. The effectiveness of treatment was measured by disease incidence (i.e., number of mice showing any sign of disease) and disease severity, both of which were measured twice a week.

[6] = tested on: Mouse Collagen-Induced Arthritis; experiment: Therapeutic mouse collagen-induced arthritis (mCIA) model; format: in vivo
Description: as §1
In the therapeutic mCIA model, induction of disease incidence and severity was synchronized via LPS stimulation. Male DBA/J mice were immunized with 100 ug of bovine type II collagen (bCII) on day 0. All mice received an intraperitoneal injection of 20 μg of LPS on day 28 and disease was allowed to develop through day 34. At day 34, all mice had disease (incidence=100%) with an average severity score of seven. Dosing of compounds was initiated in the therapeutic mode on day 34 and continued through day 49. Different treatments were compared by measuring the decrease in incidence (i.e., resolution of disease) and the decrease in severity of paw swelling over time.

[7] = tested on: TNFα; experiment: LPS-induced serum TNFα suppression, 28-day repeat dose mouse model; format: in vivo
[8] = tested on: house dust mite-induced BAL inflammatory cell influx; experiment: House dust mite model of asthma, BAL fluid cell infiltration; format: in vivo, mouse; settings: mice, 0.1, 1 and 10 mg/kg, p.o., b.i.d.
[9] = biological target: full-length glucocorticoid (GR) protein (Homo sapiens (Human), UniProt P04150); experiment: Glucocorticoid receptor fluorescence polarization ligand binding (GRFP) assay
[10] = Solubility and intrinsic dissolution; format: physicochemical; settings: compared with Example 1
[11] = data set 2, 28-day repeat dose model
[12] = data set 2, 28-day repeat dose model, unit assumed

Chain of full-length glucocorticoid (GR) protein (P04150 whole entry): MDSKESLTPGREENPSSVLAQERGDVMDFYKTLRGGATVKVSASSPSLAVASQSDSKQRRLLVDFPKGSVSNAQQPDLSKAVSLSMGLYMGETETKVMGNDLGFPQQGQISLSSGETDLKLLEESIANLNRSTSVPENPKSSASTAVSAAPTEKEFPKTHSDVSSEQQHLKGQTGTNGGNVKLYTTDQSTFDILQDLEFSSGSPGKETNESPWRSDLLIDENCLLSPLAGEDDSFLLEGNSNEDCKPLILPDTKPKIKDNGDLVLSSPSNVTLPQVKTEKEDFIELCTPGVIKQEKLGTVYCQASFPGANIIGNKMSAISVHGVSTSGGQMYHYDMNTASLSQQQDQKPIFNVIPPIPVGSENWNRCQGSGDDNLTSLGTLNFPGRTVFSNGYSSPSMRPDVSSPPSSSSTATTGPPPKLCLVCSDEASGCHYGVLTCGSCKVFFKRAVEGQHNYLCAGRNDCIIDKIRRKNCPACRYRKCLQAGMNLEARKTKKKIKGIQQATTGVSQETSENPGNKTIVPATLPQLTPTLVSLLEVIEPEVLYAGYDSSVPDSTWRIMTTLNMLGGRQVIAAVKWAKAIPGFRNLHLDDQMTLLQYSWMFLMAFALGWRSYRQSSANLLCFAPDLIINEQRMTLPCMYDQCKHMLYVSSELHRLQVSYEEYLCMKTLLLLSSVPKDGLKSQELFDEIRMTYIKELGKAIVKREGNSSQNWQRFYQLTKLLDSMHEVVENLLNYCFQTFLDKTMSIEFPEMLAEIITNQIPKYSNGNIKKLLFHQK

SMILES: Cc1ncccc1NC(=O)c1ccc2c(c1)C=C[C@@H]1C[C@@](O)(C(F)(F)F)CC[C@@]21Cc1ccccc1 [Comparator I, (4βS,7R,8αS)-4β-benzyl-7-hydroxy-N-(2-methylpyridin-3-yl)-7-(trifluoromethyl)-4β,5,6,7,8,8α-hexahydrophenanthrene-2-carboxamide]
Osteocalcin Suppression (ED80 dose) ([1]; mouse): >20 mg/kg

SMILES: C[C@]12C=CC(=O)C=C1CC[C@@H]1[C@@H]2[C@@H](O)C[C@@]2(C)[C@H]1CC[C@]2(O)C(=O)CO [Prednisolone]
AUC(0-4 hr) as share of AUC(0-24 hr) [2]: more than 95%
IL-6 % Inhibition ([3]; additional result (footnote a)): 100%
Cortical bone formation rate (BFR) EAUC50 ([4]; AUC 0-4 hr, mouse): 0.09 µg·h/mL
Cortical bone formation rate (BFR) EAUC80 ([4]; AUC 0-4 hr, mouse): 0.60 µg·h/mL
Cortical bone formation rate (BFR) EAUC50 [4, 11]: 0.10
Cortical bone formation rate (BFR) EAUC80 [4, 11]: 0.66
Disease incidence (traditional mCIA) EAUC50 ([5]; AUC 0-4 hr, mouse): 0.25 µg·h/mL
Disease incidence (traditional mCIA) EAUC80 ([5]; AUC 0-4 hr, mouse): 0.60 µg·h/mL
Disease incidence (traditional mCIA) EAUC80 ([5]; data set 2): 0.50
Serum osteocalcin EAUC50 ([1]; AUC 0-4 hr, mouse): 0.56 µg·h/mL
Serum osteocalcin EAUC80 ([1]; AUC 0-4 hr, mouse): 1.60 µg·h/mL
Serum osteocalcin (OC) EAUC50 [1]: 0.56 µg·h/mL
Serum osteocalcin (OC) EAUC80 [1]: 1.64 µg·h/mL
Disease severity (therapeutic mCIA) EAUC50 ([6]; AUC 0-4 hr, mouse): 0.38 µg·h/mL
Disease severity (therapeutic mCIA) EAUC80 ([6]; AUC 0-4 hr, mouse): 1.19 µg·h/mL
Disease incidence (therapeutic mCIA) EAUC50 ([6]; data set 2): 0.68 µg·h/mL
Disease incidence (therapeutic mCIA) EAUC80 ([6]; data set 2): 1.38 µg·h/mL
Disease severity (therapeutic mCIA) EAUC50 ([6]; data set 2, unit assumed): 0.38 µg·h/mL
Disease severity (therapeutic mCIA) EAUC80 ([6]; data set 2, unit assumed): 1.19 µg·h/mL
Therapeutic mCIA (ED80 dose) ([6]; mouse): 5.5 mg/kg
Serum TNFα EAUC50 ([7]; AUC 0-4 hr, mouse): 0.81 µg·h/mL
Serum TNFα EAUC80 ([7]; AUC 0-4 hr, mouse): 0.95 µg·h/mL
Serum TNFα EAUC50 [7, 12]: 0.82 µg·h/mL
Serum TNFα EAUC80 [7, 12]: 0.95 µg·h/mL
TNFα Suppression (ED80 dose) ([7]; mouse, oral gavage 28 days, LPS-induced serum TNFα): 2.10 mg/kg

SMILES: Cc1ncccc1NC(=O)c1ccc2c(c1)CC[C@@H]1C[C@@](O)(CCC(F)(F)F)CC[C@@]21Cc1ccccc1 [Comparator C, (4βS,7S,8αR)-4β-benzyl-7-hydroxy-N-(2-methylpyridin-3-yl)-7-(3,3,3-trifluoropropyl)-4β,5,6,7,8,8α,9,10-octahydrophenanthrene-2-carboxamide]
Osteocalcin Suppression (ED80 dose) ([1]; mouse): 2.84 mg/kg

SMILES: Cc1ncc(NC(=O)c2ccc3c(c2)CC[C@@H]2C[C@@](O)(CCC(F)(F)F)CC[C@@]32Cc2ccccc2)c(C)n1 [Comparator J, (4βS,7S,8αR)-4β-benzyl-N-(2,4-dimethylpyrimidin-5-yl)-7-hydroxy-7-(3,3,3-trifluoropropyl)-4β,5,6,7,8,8α,9,10-octahydrophenanthrene-2-carboxamide]
Osteocalcin Suppression (ED80 dose) ([1]; mouse): 3.58 mg/kg

SMILES: Cc1ncccc1NC(=O)c1ccc2c(c1)C(=O)C[C@@H]1C[C@@](O)(C(F)(F)F)CC[C@@]21Cc1ccccc1 [Comparator E, (4βS,7R,8αS)-4β-benzyl-7-hydroxy-N-(2-methylpyridin-3-yl)-10-oxo-7-(trifluoromethyl)-4β,5,6,7,8,8α,9,10-octahydrophenanthrene-2-carboxamide]
Osteocalcin Suppression (ED80 dose) ([1]; mouse): 1.71 mg/kg

IC50 ([3]; IL-1β 1 ng/mL, listed as Example 1 free base): 0.36 nM
Serum osteocalcin (OC) EAUC50 [1]: 1.31 µg·h/mL
Serum osteocalcin (OC) EAUC80 [1]: 4.15 µg·h/mL
SMILES: Cc1ncccc1NC(=O)c1ccc2c(c1)CC[C@@H]1C[C@@](O)(C(F)(F)F)CC[C@@]21Cc1ccccc1 [Example 1, (4βS,7R,8αR)-4β-benzyl-7-hydroxy-N-(2-methylpyridin-3-yl)-7-(trifluoromethyl)-4β,5,6,7,8,8α,9,10-octahydrophenanthrene-2-carboxamide]
Disease incidence (traditional mCIA) EAUC80 ([5]; data set 2): 0.10
Disease incidence (therapeutic mCIA) EAUC50 ([6]; data set 2): 0.12 µg·h/mL
Disease incidence (therapeutic mCIA) EAUC80 ([6]; data set 2): 0.33 µg·h/mL
Disease severity (therapeutic mCIA) EAUC50 ([6]; data set 2, unit assumed): 0.09 µg·h/mL
Disease severity (therapeutic mCIA) EAUC80 ([6]; data set 2, unit assumed): 0.19 µg·h/mL
Therapeutic mCIA (ED50 dose) ([6]; mouse): less than 1 mg/kg
cell infiltration into BAL fluid [8]: mitigated cell infiltration into BAL fluid dose-dependently
Serum TNFα EAUC50 [7, 12]: 0.22 µg·h/mL
Serum TNFα EAUC80 [7, 12]: 0.33 µg·h/mL

IC50 [9]: 2.13 nM
SMILES: Cc1c(NC(=O)c2ccc3c(c2)CC[C@@H]2C[C@@](O)(C(F)(F)F)CC[C@@]32Cc2ccccc2)ccc[n+]1[O-] [Comparator G]

SMILES: Cc1ncccc1NC(=O)c1ccc2c(c1)CC[C@@H]1C[C@@](O)(C(F)F)CC[C@@]21Cc1ccccc1 [Comparator H, (4βS,7R,8αR)-4β-benzyl-7-(difluoromethyl)-7-hydroxy-N-(2-methylpyridin-3-yl)-4β,5,6,7,8,8α,9,10-octahydrophenanthrene-2-carboxamide]
Osteocalcin Suppression (ED80 dose) ([1]; mouse): 1.46 mg/kg

solubility and intrinsic dissolution [10]: enhanced
SMILES: Cc1ncccc1NC(=O)c1ccc2c(c1)CC[C@@H]1C[C@@](OP(=O)(O)O)(C(F)(F)F)CC[C@@]21Cc1ccccc1 [Example 2, (2R,4αS,10αR)-4α-benzyl-7-((2-methylpyridin-3-yl)carbamoyl)-2-(trifluoromethyl)-1,2,3,4,4α,9,10,10α-octahydrophenanthren-2-yl dihydrogen phosphate]

SMILES: Cc1cnc(NC(=O)c2ccc3c(c2)CC[C@@H]2C[C@@](O)(C(F)(F)F)CC[C@@]32Cc2ccccc2)c(C)n1 [Comparator B, (4βS,7R,8αR)-4β-benzyl-N-(3,5-dimethylpyrazin-2-yl)-7-hydroxy-7-(trifluoromethyl)-4β,5,6,7,8,8α,9,10-octahydrophenanthrene-2-carboxamide]
Osteocalcin Suppression (ED80 dose) ([1]; mouse): >10 mg/kg

SMILES: Cc1ccncc1NC(=O)c1ccc2c(c1)CC[C@@H]1C[C@@](O)(C(F)(F)F)CC[C@@]21Cc1ccccc1 [Comparator D, (4βS,7R,8αR)-4β-benzyl-7-hydroxy-N-(4-methylpyridin-3-yl)-7-(trifluoromethyl)-4β,5,6,7,8,8α,9,10-octahydrophenanthrene-2-carboxamide]
Osteocalcin Suppression (ED80 dose) ([1]; mouse): 3.06 mg/kg

SMILES: Cc1ncccc1NC(=O)c1ccc2c(c1)[C@H](O)C[C@@H]1C[C@@](O)(C(F)(F)F)CC[C@@]21Cc1ccccc1 [Comparator F, (4βS,7R,8αR,10R)-4β-benzyl-7,10-dihydroxy-N-(2-methylpyridin-3-yl)-7-(trifluoromethyl)-4β,5,6,7,8,8α,9,10-octahydrophenanthrene-2-carboxamide]
Osteocalcin Suppression (ED80 dose) ([1]; mouse): >10 mg/kg
